According to patent publication US20190209501A1, “COMPOSITIONS AND METHODS OF USE OF BETA-HYDROXY-BETA-METHYLBUTYRATE (HMB) […] IN[…]” (Texas Tech University Office of Research Commercialization, priority 2018, published 2019):
“Also recorded” adds a separate entry of the source.

Experiments:
[1] = Isometric squat rate of force development (RFD); assay type: in vivo, human; parameters: RFD50 ms / RFD50 ms Δ / RFD100 ms / RFD100 ms Δ / RFD200 ms / RFD200 ms Δ / RFD30 ms / RFD30 ms Δ: unit not given here; conditions: for RFD30 ms Δ / RFD30 ms Δ (%) / RFD50 ms Δ / RFD50 ms Δ (%) / RFD100 ms Δ / RFD100 ms Δ (%) / RFD200 ms Δ / RFD200 ms Δ (%): baseline to W 8; for RFD30 ms ES (d) / RFD50 ms ES (d) / RFD100 ms ES (d) / RFD200 ms ES (d): effect size
Protocol: Isometric and isokinetic squats were performed using a mechanized squat device (Exerbotics eSq, Tulsa, Okla., USA) (31, 32). At the first assessment, each participant's preferred foot positioning was determined using a custom grid overlaid on the foot platform of the squat device. This foot positioning was recorded and utilized for all visits. No weight belts, knee wraps, or other aids were utilized during testing. Prior to testing, the participant's range of motion for isokinetic testing was determined. The range of motion was set to 90° between the thigh and lower leg at the bottom of the repetition and approximately 170° at the top of the repetition, as determined by a goniometer. The isometric testing included maximal effort pushes at 120° and 150° knee angles. Each participant was instructed to push against the device as hard and fast as possible while attempting to complete a squat movement. Two isometric pushes were performed at each knee angle, and each effort lasted approximately 2 to 3 seconds. After the isometric testing, a 3-repetition maximum isokinetic force production test was completed. Prior to testing, participants observed the movement of the machine and received verbal instruction regarding proper performance of the assessment. Each of the repetitions during the maximal isokinetic force production test consisted of a 4-second eccentric phase, followed by an approximately half-second pause at the 90° knee position and a 4-second concentric phase. During testing, the force signal was sampled from the load cell at 1 kHz (MP100; Biopac Systems, Inc, Santa Barbara, Calif., USA), stored on a personal computer, and processed off-line using custom-written software (LabVIEW, Version 11.0; National Instruments, Austin, Tex., USA). The scaled force signal was low-pass filtered, with a 10-Hz cutoff (zero-phase lag, fourth-order Butterworth filter). All subsequent analyses were conducted on the scaled and filtered force signal. For the isometric force production tests, the rate of force development (RFD) over specific time intervals (i.e. 30, 50, 100 and 200 ms) was calculated by manually specifying the onset of force production within the custom LabVIEW program. For each repetition of the maximum isokinetic force production test, isokinetic peak forces (PF) were determined as the highest mean 25-ms epoch for both concentric and eccentric testing (i.e. PFCONC and PFECC).

[2] = Reported side effects / adverse events; assay type: in vivo, human

CC(C)(O)CC(=O)O [TRFHMB, β-hydroxy-β-methylbutyrate]
RFD30 ms ([1]; ITT, knee angle 120°, Baseline): 1638 ± 411 | RFD50 ms ([1]; ITT, knee angle 120°, Baseline): 2017 ± 472 | RFD100 ms ([1]; ITT, knee angle 120°, Baseline): 2621 ± 719 | RFD200 ms ([1]; ITT, knee angle 120°, Baseline): 3661 ± 503 | RFD30 ms ([1]; ITT, knee angle 120°, W 4): 2131 ± 457 | RFD50 ms ([1]; ITT, knee angle 120°, W 4): 2760 ± 506 | RFD100 ms ([1]; ITT, knee angle 120°, W 4): 3451 ± 759 | RFD200 ms ([1]; ITT, knee angle 120°, W 4): 4121 ± 475 | RFD30 ms ([1]; ITT, knee angle 120°, W 8): 2606 ± 494 | RFD50 ms ([1]; ITT, knee angle 120°, W 8): 3153 ± 510 | RFD100 ms ([1]; ITT, knee angle 120°, W 8): 4205 ± 774 | RFD200 ms ([1]; ITT, knee angle 120°, W 8): 4332 ± 472 | RFD30 ms Δ ([1]; ITT, knee angle 120°): 969 | RFD30 ms Δ (%) ([1]; ITT, knee angle 120°): 59% | RFD50 ms Δ ([1]; ITT, knee angle 120°): 1135 | RFD50 ms Δ (%) ([1]; ITT, knee angle 120°): 56% | RFD100 ms Δ ([1]; ITT, knee angle 120°): 1585 | RFD100 ms Δ (%) ([1]; ITT, knee angle 120°): 60% | RFD200 ms Δ ([1]; ITT, knee angle 120°): 671 | RFD200 ms Δ (%) ([1]; ITT, knee angle 120°): 18% | RFD30 ms ES (d) ([1]; ITT, knee angle 120°): 0.59 | RFD50 ms ES (d) ([1]; ITT, knee angle 120°): 0.64 | RFD100 ms ES (d) ([1]; ITT, knee angle 120°): 0.59 | RFD200 ms ES (d) ([1]; ITT, knee angle 120°): 0.38 | RFD30 ms ([1]; ITT, knee angle 150°, Baseline): 1922 ± 471 | RFD50 ms ([1]; ITT, knee angle 150°, Baseline): 2203 ± 703 | RFD100 ms ([1]; ITT, knee angle 150°, Baseline): 2694 ± 825 | RFD200 ms ([1]; ITT, knee angle 150°, Baseline): 3163 ± 491 | RFD30 ms ([1]; ITT, knee angle 150°, W 4): 2612 ± 420 | RFD50 ms ([1]; ITT, knee angle 150°, W 4): 2989 ± 482 | RFD100 ms ([1]; ITT, knee angle 150°, W 4): 3567 ± 750 | RFD200 ms ([1]; ITT, knee angle 150°, W 4): 3511 ± 447 | RFD30 ms ([1]; ITT, knee angle 150°, W 8): 2851 ± 469 | RFD50 ms ([1]; ITT, knee angle 150°, W 8): 3208 ± 468 | RFD100 ms ([1]; ITT, knee angle 150°, W 8): 3944 ± 754 | RFD200 ms ([1]; ITT, knee angle 150°, W 8): 3876 ± 443 | RFD30 ms Δ ([1]; ITT, knee angle 150°): 929 | RFD30 ms Δ (%) ([1]; ITT, knee angle 150°): 48% | RFD50 ms Δ ([1]; ITT, knee angle 150°): 1004 | RFD50 ms Δ (%) ([1]; ITT, knee angle 150°): 46% | RFD100 ms Δ ([1]; ITT, knee angle 150°): 1251 | RFD100 ms Δ (%) ([1]; ITT, knee angle 150°): 46% | RFD200 ms Δ ([1]; ITT, knee angle 150°): 713 | RFD200 ms Δ (%) ([1]; ITT, knee angle 150°): 23% | RFD30 ms ES (d) ([1]; ITT, knee angle 150°): 0.53 | RFD50 ms ES (d) ([1]; ITT, knee angle 150°): 0.45 | RFD100 ms ES (d) ([1]; ITT, knee angle 150°): 0.42 | RFD200 ms ES (d) ([1]; ITT, knee angle 150°): 0.41 | RFD30 ms ([1]; PP, knee angle 120°, Baseline): 1669 ± 662 | RFD50 ms ([1]; PP, knee angle 120°, Baseline): 2016 ± 758 | RFD100 ms ([1]; PP, knee angle 120°, Baseline): 2642 ± 1153 | RFD200 ms ([1]; PP, knee angle 120°, Baseline): 4079 ± 688 | RFD30 ms ([1]; PP, knee angle 120°, W 4): 2267 ± 723 | RFD50 ms ([1]; PP, knee angle 120°, W 4): 3028 ± 787 | RFD100 ms ([1]; PP, knee angle 120°, W 4): 3845 ± 1195 | RFD200 ms ([1]; PP, knee angle 120°, W 4): 4636 ± 648 | RFD30 ms ([1]; PP, knee angle 120°, W 8): 2917 ± 675 | RFD50 ms ([1]; PP, knee angle 120°, W 8): 3470 ± 675 | RFD100 ms ([1]; PP, knee angle 120°, W 8): 4629 ± 1111 | RFD200 ms ([1]; PP, knee angle 120°, W 8): 4824 ± 569 | RFD30 ms Δ ([1]; PP, knee angle 120°): 1248 | RFD30 ms Δ (%) ([1]; PP, knee angle 120°): 75% | RFD50 ms Δ ([1]; PP, knee angle 120°): 1454 | RFD50 ms Δ (%) ([1]; PP, knee angle 120°): 72% | RFD100 ms Δ ([1]; PP, knee angle 120°): 1987 | RFD100 ms Δ (%) ([1]; PP, knee angle 120°): 75% | RFD200 ms Δ ([1]; PP, knee angle 120°): 745 | RFD200 ms Δ (%) ([1]; PP, knee angle 120°): 18% | RFD30 ms ES (d) ([1]; PP, knee angle 120°): 0.71 | RFD50 ms ES (d) ([1]; PP, knee angle 120°): 0.77 | RFD100 ms ES (d) ([1]; PP, knee angle 120°): 0.66 | RFD200 ms ES (d) ([1]; PP, knee angle 120°): 0.45 | RFD30 ms ([1]; PP, knee angle 150°, Baseline): 2121 ± 770 | RFD50 ms ([1]; PP, knee angle 150°, Baseline): 2420 ± 1187 | RFD100 ms ([1]; PP, knee angle 150°, Baseline): 3072 ± 1377 | RFD200 ms ([1]; PP, knee angle 150°, Baseline): 3441 ± 708 | RFD30 ms ([1]; PP, knee angle 150°, W 4): 2845 ± 625 | RFD50 ms ([1]; PP, knee angle 150°, W 4): 3274 ± 715 | RFD100 ms ([1]; PP, knee angle 150°, W 4): 3940 ± 1178 | RFD200 ms ([1]; PP, knee angle 150°, W 4): 3613 ± 634 | RFD30 ms ([1]; PP, knee angle 150°, W 8): 3177 ± 622 | RFD50 ms ([1]; PP, knee angle 150°, W 8): 3572 ± 604 | RFD100 ms ([1]; PP, knee angle 150°, W 8): 4346 ± 1070 | RFD200 ms ([1]; PP, knee angle 150°, W 8): 4237 ± 558 | RFD30 ms Δ ([1]; PP, knee angle 150°): 1056 | RFD30 ms Δ (%) ([1]; PP, knee angle 150°): 50% | RFD50 ms Δ ([1]; PP, knee angle 150°): 1152 | RFD50 ms Δ (%) ([1]; PP, knee angle 150°): 48% | RFD100 ms Δ ([1]; PP, knee angle 150°): 1274 | RFD100 ms Δ (%) ([1]; PP, knee angle 150°): 41% | RFD200 ms Δ ([1]; PP, knee angle 150°): 796 | RFD200 ms Δ (%) ([1]; PP, knee angle 150°): 23% | RFD30 ms ES (d) ([1]; PP, knee angle 150°): 0.57 | RFD50 ms ES (d) ([1]; PP, knee angle 150°): 0.46 | RFD100 ms ES (d) ([1]; PP, knee angle 150°): 0.39 | RFD200 ms ES (d) ([1]; PP, knee angle 150°): 0.47 | Reported side effects at W4 ([2]; week 4, n=1 each): morning fatigue; also recorded: bloated stomach | Reported side effects at W8 ([2]; week 8, n=1): bloated stomach
